Assays:
Experiment in all cases: KinomeScan kinase profiling
Format in all cases: binding
Conditions in all cases: 10 μM
CSNK1G2 = biological target: T1, CSNK1G2 (Homo sapiens, UniProt P78368)
T1 construct: purchased Ambit Biosciences (San Diego, Calif.)
From the text: (§1) The selectivity of a given CK1α, CK1α-CK1δ, CK1α-CK1ε or CK1α-CK1δ-CK1ε inhibitor compound can be determined by testing the compound against a panel of known kinases. An example of such a kinase profiling technology is the “KinomeScan” from Ambit Biosciences in which compounds can be screened for their modulatory activities against more than 200 known kinases.

ROS1 = biological target: T2, ROS1 (Homo sapiens, UniProt P08922)
T2 construct: purchased Ambit Biosciences
From the text: as §1

DMPK = biological target: T3, DMPK (Homo sapiens, UniProt Q09013)
T3 construct: purchased Ambit Biosciences (San Diego, Calif.)
From the text: as §1

CAMKK2 = biological target: T4, CAMKK2 (Homo sapiens, UniProt Q96RR4)
T4 construct: purchased Ambit Biosciences (San Diego, Calif.)
From the text: as §1

AAK1 = biological target: T5, AAK1 (Homo sapiens, UniProt Q2M2I8)
T5 construct: purchased Ambit Biosciences
From the text: as §1

EPHB1 = biological target: T6, EPHB1 (Homo sapiens, UniProt P54762)
T6 construct: purchased Ambit Biosciences (San Diego, Calif.)
From the text: as §1

PAK6 = PAK6 (Homo sapiens, UniProt Q9NQU5)
From the text: as §1

LTK = LTK (Homo sapiens, UniProt P29376)
From the text: as §1

TRKA = biological target: T7, TRKA (Homo sapiens, UniProt P04629)
T7 construct: purchased Ambit Biosciences
T7 sequence (P04629 33-796): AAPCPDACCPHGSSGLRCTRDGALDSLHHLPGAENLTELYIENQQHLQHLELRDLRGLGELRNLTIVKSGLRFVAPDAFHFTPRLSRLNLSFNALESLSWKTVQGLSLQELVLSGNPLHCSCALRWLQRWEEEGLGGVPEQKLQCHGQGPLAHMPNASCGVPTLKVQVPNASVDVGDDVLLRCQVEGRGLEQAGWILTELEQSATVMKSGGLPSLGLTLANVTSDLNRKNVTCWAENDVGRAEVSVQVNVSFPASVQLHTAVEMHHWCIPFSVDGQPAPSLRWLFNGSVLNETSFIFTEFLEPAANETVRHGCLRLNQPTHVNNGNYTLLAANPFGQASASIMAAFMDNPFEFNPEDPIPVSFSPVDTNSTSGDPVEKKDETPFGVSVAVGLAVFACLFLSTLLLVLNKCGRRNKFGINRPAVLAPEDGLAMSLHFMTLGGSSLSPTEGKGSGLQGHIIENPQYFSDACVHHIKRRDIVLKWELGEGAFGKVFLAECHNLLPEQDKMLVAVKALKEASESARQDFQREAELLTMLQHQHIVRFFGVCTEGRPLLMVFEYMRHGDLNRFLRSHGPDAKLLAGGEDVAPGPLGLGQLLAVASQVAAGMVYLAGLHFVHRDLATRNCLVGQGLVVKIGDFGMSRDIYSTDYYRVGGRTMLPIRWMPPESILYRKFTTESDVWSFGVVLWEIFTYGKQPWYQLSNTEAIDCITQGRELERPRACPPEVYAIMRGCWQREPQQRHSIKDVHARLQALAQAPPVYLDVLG
From the text: as §1

MKNK2 = MKNK2 (Homo sapiens, UniProt Q9HBH9)
From the text: as §1

STK17A = biological target: T8, STK17A (Homo sapiens, UniProt Q9UEE5)
T8 construct: purchased Ambit Biosciences
From the text: as §1

NEK6 = NEK6 (Homo sapiens, UniProt Q9HC98)
From the text: as §1

IGF1R = biological target: T9, IGF1R (Homo sapiens, UniProt P08069)
T9 construct: purchased Ambit Biosciences
From the text: as §1

ERBB2 = biological target: T10, ERBB2 (Homo sapiens, UniProt P04626)
T10 construct: purchased Ambit Biosciences
From the text: as §1

PTK2 = biological target: T11, PTK2 (Homo sapiens, UniProt Q05397)
T11 construct: purchased Ambit Biosciences
T11 sequence (Q05397 whole entry): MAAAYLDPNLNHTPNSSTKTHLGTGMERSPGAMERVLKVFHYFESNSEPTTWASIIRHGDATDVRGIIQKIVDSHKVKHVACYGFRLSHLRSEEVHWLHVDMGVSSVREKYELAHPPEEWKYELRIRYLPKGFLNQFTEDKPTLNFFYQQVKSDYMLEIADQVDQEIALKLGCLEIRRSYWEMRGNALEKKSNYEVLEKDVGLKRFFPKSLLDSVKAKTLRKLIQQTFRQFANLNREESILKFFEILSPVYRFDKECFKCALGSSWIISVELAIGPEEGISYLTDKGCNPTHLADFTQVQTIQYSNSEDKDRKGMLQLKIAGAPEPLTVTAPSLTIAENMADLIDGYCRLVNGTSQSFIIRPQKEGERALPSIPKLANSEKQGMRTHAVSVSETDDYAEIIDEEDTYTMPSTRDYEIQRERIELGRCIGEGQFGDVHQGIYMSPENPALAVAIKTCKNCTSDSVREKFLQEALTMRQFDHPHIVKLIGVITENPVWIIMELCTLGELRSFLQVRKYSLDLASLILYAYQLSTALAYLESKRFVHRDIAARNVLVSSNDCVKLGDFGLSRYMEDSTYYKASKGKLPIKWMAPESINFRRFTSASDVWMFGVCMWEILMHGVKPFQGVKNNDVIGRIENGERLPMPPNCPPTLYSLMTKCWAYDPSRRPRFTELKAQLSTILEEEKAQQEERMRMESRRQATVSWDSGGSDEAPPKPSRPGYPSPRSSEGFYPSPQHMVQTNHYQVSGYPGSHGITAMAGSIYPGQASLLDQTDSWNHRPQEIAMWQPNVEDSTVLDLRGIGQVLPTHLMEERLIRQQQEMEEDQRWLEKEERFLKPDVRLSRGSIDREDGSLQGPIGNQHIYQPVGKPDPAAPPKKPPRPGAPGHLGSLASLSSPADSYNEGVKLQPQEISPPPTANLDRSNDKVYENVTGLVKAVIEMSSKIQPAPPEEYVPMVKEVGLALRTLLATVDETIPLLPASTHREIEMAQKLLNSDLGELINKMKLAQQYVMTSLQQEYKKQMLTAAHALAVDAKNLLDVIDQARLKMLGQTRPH
From the text: as §1

INSR = biological target: T12, INSR (Homo sapiens, UniProt P06213)
T12 construct: purchased Ambit Biosciences
From the text: as §1

GAK = biological target: T13, GAK (Homo sapiens, UniProt O14976)
T13 construct: purchased Ambit Biosciences
From the text: as §1

ABL1 = biological target: T14, ABL1 (Homo sapiens, UniProt P00519)
T14 construct: purchased Ambit Biosciences
T14 sequence (P00519 whole entry): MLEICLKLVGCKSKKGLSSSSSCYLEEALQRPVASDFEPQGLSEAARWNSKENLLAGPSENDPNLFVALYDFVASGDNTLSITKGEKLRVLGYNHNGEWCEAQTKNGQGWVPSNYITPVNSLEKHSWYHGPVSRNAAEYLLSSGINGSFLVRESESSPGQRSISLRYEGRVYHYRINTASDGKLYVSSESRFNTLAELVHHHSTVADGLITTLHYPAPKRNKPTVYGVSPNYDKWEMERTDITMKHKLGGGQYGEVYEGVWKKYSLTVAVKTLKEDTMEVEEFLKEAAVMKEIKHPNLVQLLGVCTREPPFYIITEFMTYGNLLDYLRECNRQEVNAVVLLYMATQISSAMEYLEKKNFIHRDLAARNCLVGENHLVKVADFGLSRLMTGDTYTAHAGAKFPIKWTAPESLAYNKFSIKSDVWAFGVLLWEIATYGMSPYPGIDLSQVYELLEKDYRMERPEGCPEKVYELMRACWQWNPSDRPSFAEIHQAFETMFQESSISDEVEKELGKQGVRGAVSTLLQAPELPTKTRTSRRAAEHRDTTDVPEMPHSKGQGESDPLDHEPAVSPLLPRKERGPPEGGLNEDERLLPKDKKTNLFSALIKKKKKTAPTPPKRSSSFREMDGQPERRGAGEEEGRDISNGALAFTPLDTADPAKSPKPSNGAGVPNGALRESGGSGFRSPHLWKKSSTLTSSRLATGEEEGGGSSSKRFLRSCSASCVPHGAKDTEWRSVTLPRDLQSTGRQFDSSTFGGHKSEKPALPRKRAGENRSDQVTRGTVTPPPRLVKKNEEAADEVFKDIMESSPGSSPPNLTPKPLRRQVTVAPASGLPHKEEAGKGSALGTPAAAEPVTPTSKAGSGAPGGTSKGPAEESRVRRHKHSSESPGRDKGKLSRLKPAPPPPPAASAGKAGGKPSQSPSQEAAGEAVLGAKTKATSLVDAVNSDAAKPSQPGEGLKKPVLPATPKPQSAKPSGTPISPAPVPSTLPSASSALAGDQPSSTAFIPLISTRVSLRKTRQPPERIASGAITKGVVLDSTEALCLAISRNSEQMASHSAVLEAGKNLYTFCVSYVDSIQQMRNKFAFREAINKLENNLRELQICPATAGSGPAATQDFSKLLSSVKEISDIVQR
From the text: as §1

RAF1 = biological target: T15, RAF1 (Homo sapiens, UniProt P04049)
T15 construct: purchased Ambit Biosciences
T15 sequence (P04049 whole entry): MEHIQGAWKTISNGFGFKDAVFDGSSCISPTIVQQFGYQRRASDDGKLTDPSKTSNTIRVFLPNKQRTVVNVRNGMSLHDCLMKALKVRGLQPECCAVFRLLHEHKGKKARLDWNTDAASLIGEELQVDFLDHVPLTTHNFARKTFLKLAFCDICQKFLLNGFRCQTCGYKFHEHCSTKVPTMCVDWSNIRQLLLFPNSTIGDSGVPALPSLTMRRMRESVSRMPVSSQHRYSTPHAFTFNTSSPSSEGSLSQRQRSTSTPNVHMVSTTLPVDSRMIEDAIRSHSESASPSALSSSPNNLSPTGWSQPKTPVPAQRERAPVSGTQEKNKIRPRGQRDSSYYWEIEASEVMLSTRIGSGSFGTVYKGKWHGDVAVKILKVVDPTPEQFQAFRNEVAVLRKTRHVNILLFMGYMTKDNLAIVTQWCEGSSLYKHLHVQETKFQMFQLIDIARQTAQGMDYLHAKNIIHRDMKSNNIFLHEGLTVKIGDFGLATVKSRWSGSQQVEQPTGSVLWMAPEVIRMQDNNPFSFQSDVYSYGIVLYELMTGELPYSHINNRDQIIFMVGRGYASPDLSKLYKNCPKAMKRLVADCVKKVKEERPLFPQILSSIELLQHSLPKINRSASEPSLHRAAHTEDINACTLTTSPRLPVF
From the text: as §1

PAK7/PAK5 = PAK7/PAK5 (Homo sapiens, UniProt Q9P286)
From the text: as §1

FRK = biological target: T16, FRK (Homo sapiens, UniProt P42685)
T16 construct: purchased Ambit Biosciences
From the text: as §1

STK11 = biological target: T17, STK11 (Homo sapiens, UniProt Q15831)
T17 construct: purchased Ambit Biosciences
T17 sequence (Q15831 whole entry): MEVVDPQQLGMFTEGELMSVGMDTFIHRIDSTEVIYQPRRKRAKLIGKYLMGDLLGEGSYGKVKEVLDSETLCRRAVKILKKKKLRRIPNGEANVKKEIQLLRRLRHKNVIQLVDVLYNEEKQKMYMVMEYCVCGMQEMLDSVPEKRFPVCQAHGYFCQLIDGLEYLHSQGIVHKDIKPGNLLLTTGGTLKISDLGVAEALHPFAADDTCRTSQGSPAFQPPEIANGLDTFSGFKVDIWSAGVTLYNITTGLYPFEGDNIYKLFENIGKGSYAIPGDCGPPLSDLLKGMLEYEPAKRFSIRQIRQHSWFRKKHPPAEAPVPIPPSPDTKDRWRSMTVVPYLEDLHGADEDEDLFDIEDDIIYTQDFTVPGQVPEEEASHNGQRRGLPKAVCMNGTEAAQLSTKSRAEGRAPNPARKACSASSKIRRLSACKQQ
From the text: as §1

CSNK1G1 = biological target: T18, CSNK1G1 (Homo sapiens, UniProt Q9HCP0)
T18 construct: purchased Ambit Biosciences (San Diego, Calif.)
From the text: as §1

NEK9 = NEK9 (Homo sapiens, UniProt Q8TD19)
From the text: as §1

TTK = biological target: T19, TTK (Homo sapiens, UniProt P33981)
T19 construct: purchased Ambit Biosciences
T19 sequence (P33981 whole entry): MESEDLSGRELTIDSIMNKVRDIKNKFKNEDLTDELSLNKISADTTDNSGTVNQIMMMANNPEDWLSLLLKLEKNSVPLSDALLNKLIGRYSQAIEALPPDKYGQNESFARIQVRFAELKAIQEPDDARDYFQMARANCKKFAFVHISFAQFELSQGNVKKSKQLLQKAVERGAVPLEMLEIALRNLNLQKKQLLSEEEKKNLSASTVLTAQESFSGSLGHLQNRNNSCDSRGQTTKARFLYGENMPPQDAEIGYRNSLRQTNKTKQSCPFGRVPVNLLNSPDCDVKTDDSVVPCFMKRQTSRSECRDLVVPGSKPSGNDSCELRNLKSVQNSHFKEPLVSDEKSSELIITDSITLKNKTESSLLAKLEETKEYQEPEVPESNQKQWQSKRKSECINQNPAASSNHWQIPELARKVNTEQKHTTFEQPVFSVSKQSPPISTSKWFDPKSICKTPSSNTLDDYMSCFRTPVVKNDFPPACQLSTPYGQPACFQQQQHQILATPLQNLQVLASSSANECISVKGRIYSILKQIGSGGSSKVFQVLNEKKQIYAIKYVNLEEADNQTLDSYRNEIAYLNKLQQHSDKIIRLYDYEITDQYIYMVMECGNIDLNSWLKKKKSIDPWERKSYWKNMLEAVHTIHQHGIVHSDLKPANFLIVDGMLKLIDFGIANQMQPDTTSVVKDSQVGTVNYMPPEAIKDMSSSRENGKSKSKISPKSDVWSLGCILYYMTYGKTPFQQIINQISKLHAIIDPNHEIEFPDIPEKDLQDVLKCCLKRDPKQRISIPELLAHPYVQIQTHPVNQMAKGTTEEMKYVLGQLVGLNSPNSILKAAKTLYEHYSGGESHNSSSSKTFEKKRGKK
From the text: as §1

TIE2 = biological target: T20, TIE2 (Homo sapiens, UniProt Q02763)
T20 construct: purchased Ambit Biosciences
From the text: as §1

ERK2 = biological target: T21, ERK2 (Homo sapiens, UniProt P28482)
T21 construct: purchased Ambit Biosciences
From the text: as §1

FES = biological target: T22, FES (Homo sapiens, UniProt P07332)
T22 construct: purchased Ambit Biosciences
From the text: as §1

PAK3 = PAK3 (Homo sapiens, UniProt O75914)
From the text: as §1

CAMK2B = biological target: T23, CAMK2B (Homo sapiens, UniProt Q13554)
T23 construct: purchased Ambit Biosciences
From the text: as §1

ITK = biological target: T24, ITK (Homo sapiens, UniProt Q08881)
T24 construct: purchased Ambit Biosciences
From the text: as §1

SRC = biological target: T25, SRC (Homo sapiens, UniProt P12931)
T25 construct: purchased Ambit Biosciences
From the text: as §1

CLK3 = biological target: T26, CLK3 (Homo sapiens, UniProt P49761)
T26 construct: purchased Ambit Biosciences (San Diego, Calif.)
From the text: as §1

CLK1 = biological target: T27, CLK1 (Homo sapiens, UniProt P49759)
T27 construct: purchased Ambit Biosciences (San Diego, Calif.)
From the text: as §1

EGFR = biological target: T28, EGFR (Homo sapiens, UniProt P00533)
T28 construct: purchased Ambit Biosciences (San Diego, Calif.)
From the text: as §1

PAK1 = PAK1 (Homo sapiens, UniProt Q13153)
From the text: as §1

FLT4 = biological target: T29, FLT4 (Homo sapiens, UniProt P35916)
T29 construct: purchased Ambit Biosciences
From the text: as §1

TNIK = biological target: T30, TNIK (Homo sapiens, UniProt Q9UKE5)
T30 construct: purchased Ambit Biosciences
From the text: as §1

STK36 = biological target: T31, STK36 (Homo sapiens, UniProt Q9NRP7)
T31 construct: purchased Ambit Biosciences
From the text: as §1

| Structure (SMILES) | % Binding (CSNK1G2) [%] | % Binding (ROS1) [%] | % Binding (DMPK) [%] | % Binding (CAMKK2) [%] | % Binding (AAK1) [%] | % Binding (EPHB1) [%] | % Binding (PAK6) [%] | % Binding (LTK) [%] | % Binding (TRKA) [%] | % Binding (MKNK2) [%] | % Binding (STK17A) [%] | % Binding (NEK6) [%] | % Binding (IGF1R) [%] | % Binding (ERBB2) [%] | % Binding (PTK2) [%] | % Binding (INSR) [%] | % Binding (GAK) [%] | % Binding (ABL1) [%] | % Binding (RAF1) [%] | % Binding (PAK7/PAK5) [%] | other results |
| --- | --- | --- | --- | --- | --- | --- | --- | --- | --- | --- | --- | --- | --- | --- | --- | --- | --- | --- | --- | --- | --- |
| NC(=O)c1cc(-c2ccncc2)c[nH]1 [Compound A, 4-Pyridin-4-yl-1H-pyrrole-2-carboxylic acid amide] | 76 | <50 | <50 | <50 | 69 | <50 | <50 | <50 | <50 | <50 | 98 | <50 | <50 | <50 | <50 | <50 | <50 | <50 | <50 | <50 | % Binding (FRK): <50%; % Binding (STK11): <50%; % Binding (CSNK1G1): <50%; % Binding (NEK9): <50%; % Binding (TTK): <50%; % Binding (TIE2): <50%; % Binding (ERK2): <50%; % Binding (FES): <50%; % Binding (PAK3): <50%; % Binding (CAMK2B): <50%; % Binding (ITK): <50%; % Binding (SRC): <50%; % Binding (CLK3): <50%; % Binding (CLK1): 97%; % Binding (EGFR): <50%; % Binding (PAK1): <50%; % Binding (FLT4): <50%; % Binding (TNIK): <50%; % Binding (STK36): <50% |
| COc1cc(OC)c(C=C2C(O)=Nc3ccccc32)c(OC)c1 [IC261, 3-[(2,4,6-trimethoxyphenyl)methylidenyl]-indolin-2-one] | <50 | <50 | <50 | <50 | <50 | <50 | <50 | <50 | <50 | <50 | <50 | <50 | <50 | <50 | <50 | <50 | <50 | <50 | <50 | <50 | % Binding (FRK): <50%; % Binding (STK11): <50%; % Binding (CSNK1G1): <50%; % Binding (NEK9): <50%; % Binding (TTK): <50%; % Binding (TIE2): <50%; % Binding (ERK2): <50%; % Binding (FES): <50%; % Binding (PAK3): <50%; % Binding (CAMK2B): <50%; % Binding (ITK): <50%; % Binding (SRC): <50%; % Binding (CLK3): <50%; % Binding (CLK1): <50%; % Binding (EGFR): <50%; % Binding (PAK1): <50%; % Binding (FLT4): <50%; % Binding (TNIK): <50%; % Binding (STK36): <50% |

— US20090099237A1, “Methods of treating inflammatory diseases” (Roche Palo Alto LLC, priority 2007, published 2009)
